Experimental data as given in the NIST ThermoML archive (doi:10.1016/j.jct.2012.07.007).

Assay: xn = mol fraction of the nth substance listed
Conditions: 101 kPa, Liquid; for speed of sound: Linear variable-path acoustic interferometer; for mass density: Vibrating tube method

Cc1ccccn1 [2-methylpyridine] + CCn1cc[n+](C)c1.F[B-](F)(F)F
Conditions | mass density, 293.15 K [kg/m3] | mass density, 298.15 K [kg/m3] | speed of sound, 293.15 K [m/s] | speed of sound, 298.15 K [m/s] | speed of sound, 303.15 K [m/s]
x2 = 0.1219 | 1013.9 | 1010.93 | 1438.3 | 1415.5 | 1397.7
x2 = 0.1776 | 1043.45 | 1040.53 | 1457.5 | 1434.8 | 1417.2
x2 = 0.2341 | 1071.82 | 1068.69 | 1478.2 | 1454.8 | 1438.3
x2 = 0.2778 | 1092.45 | 1089.12 | 1494.2 | 1471 | 1454.4
x2 = 0.3209 | 1111.76 | 1108.07 | 1509.3 | 1487.7 | 1470.8
x2 = 0.3721 | 1133.09 | 1129.16 | 1527.3 | 1506.4 | 1490.5
x2 = 0.4232 | 1152.77 | 1148.64 | 1544.8 | 1525.5 | 1509
x2 = 0.4727 | 1170.31 | 1166.05 | 1560 | 1542.7 | 1525.2
x2 = 0.5217 | 1186.07 | 1181.95 | 1572.9 | 1557.7 | 1540.6
x2 = 0.5742 | 1201.42 | 1197.47 | 1585.5 | 1572.9 | –
x2 = 0.6217 | 1214.02 | 1210.21 | 1595.6 | 1585 | –
x2 = 0.6724 | 1226.14 | 1222.71 | 1603.9 | 1596.5 | –
x2 = 0.7228 | 1236.96 | 1233.88 | 1609.8 | 1605.1 | –
x2 = 0.7725 | 1246.69 | 1243.95 | 1614.7 | 1611.1 | –
x2 = 0.8216 | 1255.54 | 1252.96 | 1618.6 | 1615.5 | –
x2 = 0.8741 | 1264.27 | 1261.73 | 1621.8 | 1618.7 | –
x2 = 0.9218 | 1271.82 | 1269.01 | 1624.6 | 1619.8 | –
x2 = 0.9319 | 1273.41 | 1270.5 | 1625.3 | 1619.6 | –
